From patent US11000515B2, “Compounds that interact with the Ras superfamily for the treatment of cancers, inflammatory diseases, rasopathies, and fibrotic disease” (Shy Therapeutics LLC, priority 2017, dated 2021)
Where two headings read alike, the source gives them in different places.

Experiments:
[1] = target: KRas G12C/Q61H double mutant (Homo sapiens (Human), UniProt P01116, G12C/Q61H); assay: Ras GTP binding domain inhibition assay (labeled GTP)
Method: (§1) Buffer-I: • 50 mM Tris, pH 7.5 • 150 mM NaCl (optional) • 1 mM MgCl2 • 1 mM DTT. • KRas G12D mutant protein was expressed as a His-tagged protein. Purified His-KRas G12D protein was diluted in buffer-I to a final concentration of 3-10 μg/ml. • 200 μl of the diluted His-KRas G12D protein was added to a nickel coated 96 well plate and incubated overnight at 4° C. • The next day, wells were washed 3× in 200 μl of Buffer-I. • Then 200 μl of Buffer-I were added to each well in the presence of 1% DMSO. • Tested compounds were added to the protein-coated wells at a concentration of 20 μM, and incubated for 3 hours at room temperature. While performing IC50 measurements a serial dilution of all tested concentrations was prepared.
(§2) Then 22 μl of Cy3-GTP or Cy5-GTP was added to each well. The labeled GTP was incubated for 45 min. at room temperature. • Following GTP incubation, wells were washed 3× in Buffer-I, and 200 μl of Buffer-I were added to each well. • Following washes, the amount of bound labeled-GTP was measured with an Eppendorf AF2200 plate reader.
(§3) By substituting KRas G12D mutant protein with KRas G12C mutant, KRas wild type, KRas Q61H mutant, KRas G12D/Q61H double mutant or KRas G12C/Q61H double mutant under the assay conditions described above, KRas G12C mutant KRas wild type, KRas Q61H mutant, KRas G12D/Q61H double mutant and KRas G12C/Q61H double mutant inhibition, respectively, were each determined.

[2] = target: KRas G12D/Q61H double mutant (Homo sapiens (Human), UniProt P01116, G12D/Q61H); assay: as above
Method: as §1, §2, §3

[3] = system: TNFα production in RAW 264.7 macrophage cell line; assay: Mouse TNF alpha quantification assay (LPS-stimulated RAW 264.7, ELISA); type: cell-based; details: RAW264.7, LPS-stimulated RAW 264.7 macrophage cell line, read-out: TNF-α % Inhibition at 30 μM
[4] = system: IL6 production in RAW 264.7 macrophage cell line; assay: Mouse IL6 quantification assay (LPS-stimulated RAW 264.7, ELISA); type: cell-based; details: RAW264.7, LPS-stimulated RAW 264.7 macrophage cell line, read-out: IL-6 % Inhibition at 30 μM
KRas G12C mutant = KRas G12C mutant (Homo sapiens (Human), UniProt P01116, G12C); assay: Ras GTP binding domain inhibition assay (labeled GTP)
Method: as §1, §2, §3

KRas wild type = KRas wild type (Homo sapiens (Human), UniProt P01116); assay: as above
Method: as §1, §2, §3

KRas Q61H mutant = KRas Q61H mutant (Homo sapiens (Human), UniProt P01116, Q61H); assay: as above
Method: as §1, §2, §3

KRas G12D mutant protein = KRas G12D mutant protein (Homo sapiens (Human), UniProt P01116, G12D); assay: as above
Method: The following method was developed as specific assay for KRas G12D mutant protein.
as §1, §2

[5] = 20 μM compound, read-out: % Inhibition at 20 μM, KRas G12D Q61H
[6] = compound at 20 μM, read-out: % Inhibition at 20 μM, KRas G12D Q61H

KRas G12D/Q61H double mutant, sequence (P01116-2 other isoform, or with tags, fused parts or gaps G12D/Q61H): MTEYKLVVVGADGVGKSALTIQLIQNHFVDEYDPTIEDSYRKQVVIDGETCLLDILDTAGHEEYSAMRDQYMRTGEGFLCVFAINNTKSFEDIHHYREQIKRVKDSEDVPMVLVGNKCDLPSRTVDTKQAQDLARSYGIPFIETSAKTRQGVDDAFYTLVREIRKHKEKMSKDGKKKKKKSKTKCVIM
KRas wild type, sequence (P01116-2 other isoform, or with tags, fused parts or gaps): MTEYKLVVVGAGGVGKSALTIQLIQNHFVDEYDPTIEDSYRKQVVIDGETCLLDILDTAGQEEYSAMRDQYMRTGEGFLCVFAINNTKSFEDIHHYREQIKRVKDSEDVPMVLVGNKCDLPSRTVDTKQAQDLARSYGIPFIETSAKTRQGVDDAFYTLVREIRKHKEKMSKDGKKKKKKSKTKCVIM
KRas Q61H mutant, sequence (P01116-2 other isoform, or with tags, fused parts or gaps Q61H): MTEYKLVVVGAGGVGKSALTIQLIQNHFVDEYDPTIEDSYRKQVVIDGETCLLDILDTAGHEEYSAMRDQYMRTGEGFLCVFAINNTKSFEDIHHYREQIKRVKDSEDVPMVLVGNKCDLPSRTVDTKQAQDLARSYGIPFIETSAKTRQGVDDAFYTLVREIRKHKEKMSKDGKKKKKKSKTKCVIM
KRas G12D mutant protein, sequence (P01116-2 other isoform, or with tags, fused parts or gaps G12D): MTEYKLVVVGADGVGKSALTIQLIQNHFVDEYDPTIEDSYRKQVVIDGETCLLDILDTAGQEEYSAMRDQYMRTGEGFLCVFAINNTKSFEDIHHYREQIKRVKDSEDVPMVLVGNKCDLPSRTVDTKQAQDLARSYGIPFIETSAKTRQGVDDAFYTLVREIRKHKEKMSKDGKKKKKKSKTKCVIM
KRas G12C/Q61H double mutant, sequence (P01116-2 other isoform, or with tags, fused parts or gaps G12C/Q61H): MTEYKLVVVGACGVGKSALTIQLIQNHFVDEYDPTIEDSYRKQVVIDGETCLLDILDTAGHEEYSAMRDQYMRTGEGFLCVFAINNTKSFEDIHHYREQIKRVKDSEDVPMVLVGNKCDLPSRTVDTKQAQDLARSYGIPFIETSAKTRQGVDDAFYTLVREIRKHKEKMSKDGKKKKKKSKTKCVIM
KRas G12C mutant, sequence (P01116-2 other isoform, or with tags, fused parts or gaps G12C): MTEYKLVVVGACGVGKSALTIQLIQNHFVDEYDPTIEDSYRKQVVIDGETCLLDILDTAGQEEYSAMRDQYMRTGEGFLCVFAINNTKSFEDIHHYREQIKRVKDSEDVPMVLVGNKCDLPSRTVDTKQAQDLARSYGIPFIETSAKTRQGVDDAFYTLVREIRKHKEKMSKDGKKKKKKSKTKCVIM

SMILES: O=C(NCCc1cncs1)c1csc2nc(-c3ccccn3)nc(N3CCOCC3)c12
- inhibition at 20 µM ([1]; compound at 20 μM): 1 to 25%

SMILES: O=C(NCC(F)(F)F)c1ccc(CN(Cc2cc(Cl)cc3c2OCOC3)C2CC2)cc1
- inhibition at 20 µM [2, 5]: 25 to 50%

SMILES: CC(C)C(=O)Nc1nc(CC(=O)Nc2nnc(-c3ccccc3)[nH]2)cs1
- inhibition at 30 µM [3]: 1 to 25%
- inhibition at 30 µM [4]: 0%

SMILES: CC(C)c1ccc(NC(=O)CCc2c(O)cc(-c3ccccn3)nc2O)cc1
- inhibition at 20 µM ([2]; 20 μM, read-out: KRas G12D Q61H % Inh.): 51 to 75%

SMILES: Cc1cc(OC(C)COc2ccc(Oc3ccccc3)cc2)ncc1C(F)(F)F (stereo not shown)
- inhibition at 20 µM [2, 5]: 51 to 75%

SMILES: Cc1ccccc1N(CC(=O)NCC1CCCCCCC1)S(C)(=O)=O
- inhibition at 20 µM [2, 5]: 1 to 25%

SMILES: Cc1sc2c(O)nc(-c3nccn3C)nc2c1-c1ccccc1Cl
- inhibition at 20 µM (KRas G12C mutant; 20 μM compound): 1 to 25%
- inhibition at 20 µM (KRas wild type; 20 μM compound): 25 to 50%

SMILES: CCOC(=O)c1sc(N(C2CC2)S(=O)(=O)c2cc(F)ccc2F)nc1C
- inhibition at 20 µM [2, 6]: 25 to 50%

SMILES: Oc1nc(-c2ccccn2)nc2c(C3CCCC3)csc12
- % Inhibition at 20 μM, KRas Q61H (KRas Q61H mutant; 20 μM compound): D (D = 76-100% inhibition)

SMILES: COc1nc(-c2ccccn2)nc2c(C)c(C(=O)N3CCN(c4ccccc4)CC3)sc12
- inhibition at 20 µM (KRas Q61H mutant; 20 μM compound): 51 to 75%
- inhibition at 20 µM [2, 5]: 51 to 75%
- inhibition at 20 µM ([1]; 20 μM compound): 51 to 75%

SMILES: CN(CC(=O)N1CCOCC1)c1nc(-c2ccccn2)nc2scc(-c3ccccc3)c12
- inhibition at 30 µM [3]: 1 to 25%
- inhibition at 30 µM [4]: 1 to 25%

SMILES: COc1cccc(C(=O)Nc2nc(-c3ccccn3)cs2)c1
- inhibition at 30 µM [3]: 0%
- inhibition at 30 µM [4]: 1 to 25%

SMILES: COCCNc1nc(-c2cccc(C)n2)nc2sc(-c3ccccc3)c(-c3ccccc3)c12
- inhibition at 30 µM [3]: 26 to 50%
- inhibition at 30 µM [4]: 26 to 50%

SMILES: COCc1ccc(C2CCCN2c2ccc(C#N)c(C(F)(F)F)c2)o1 (stereo not shown)
- inhibition at 20 µM [2, 5]: 25 to 50%

SMILES: O=C(CCCc1cccnc1)N1CCCc2c(O)nc(-c3ccccn3)nc21
- inhibition at 20 µM (KRas G12D mutant protein; compound at 20 μM): 51 to 75%
- inhibition at 20 µM [2, 6]: 51 to 75%
- inhibition at 20 µM (KRas G12C mutant; compound at 20 μM): 51 to 75%
- inhibition at 20 µM (KRas wild type; compound at 20 μM): 25 to 50%

SMILES: COCCNc1nc(-c2nccn2C)nc2sc(-c3ccccc3)c(-c3ccccc3)c12
- inhibition at 20 µM (KRas G12D mutant protein; 20 μM compound): 0%

SMILES: COc1cnc(CNC(=O)c2csc3nc(-c4ccccn4)nc(N)c23)[nH]c1=O
- inhibition at 20 µM (KRas Q61H mutant; 20 μM compound): 25 to 50%
- inhibition at 20 µM ([1]; 20 μM compound): 25 to 50%

SMILES: O=C(CCc1cnn(-c2ccccc2)c1)Nc1nnc(-c2ccccn2)[nH]1
- inhibition at 30 µM [3]: 1 to 25%
- inhibition at 30 µM [4]: 26 to 50%

SMILES: COCCN(Cc1ccccc1)CC(O)OCC(c1ccc(OC)cc1)c1ccc(OC)cc1 (stereo not shown)
- inhibition at 20 µM [2, 5]: 1 to 25%

SMILES: Cn1cnc(-c2nc(O)c3c(C4C=CC=CC4)c(-c4ccncc4)sc3n2)c1 (stereo not shown)
- inhibition at 20 µM (KRas Q61H mutant; 20 μM compound): 1 to 25%
- inhibition at 20 µM [2, 5]: 1 to 25%
- inhibition at 20 µM ([1]; 20 μM compound): 1 to 25%

SMILES: Nc1nc(-c2ccccn2)nc2c(-c3ccccn3)csc12
- inhibition at 30 µM [3]: 76 to 100%
- inhibition at 30 µM [4]: 76 to 100%

SMILES: COc1ccc(CCNC(=O)c2cc(S(=O)(=O)N3CCCCCC3)ccc2OC)cc1OC
- inhibition at 20 µM [2, 6]: 25 to 50%

SMILES: OC[C@H]1O[C@@H](c2csc3c2N=C(c2ccccn2)NC3O)[C@H](O)[C@@H]1O (stereo partly shown)
- inhibition at 20 µM (KRas G12D mutant protein; 20 μM compound): 25 to 50%
- inhibition at 20 µM (KRas Q61H mutant; 20 μM compound): 51 to 75%
- inhibition at 20 µM [2, 5]: 25 to 50%
- inhibition at 20 µM (KRas G12C mutant; 20 μM compound): 51 to 75%
- inhibition at 20 µM ([1]; 20 μM compound): 25 to 50%
- inhibition at 20 µM (KRas wild type; 20 μM compound): 25 to 50%

SMILES: O=C(Nc1nnc(-c2ccccn2)s1)c1csc(-c2ccco2)n1
- inhibition at 30 µM [3]: 0%
- inhibition at 30 µM [4]: 51 to 75%

SMILES: COc1cc(CNc2nc(-c3ccccn3)nc3scc(-c4ccccc4)c23)ccc1OCC(N)=O
- inhibition at 30 µM [3]: 76 to 100%
- inhibition at 30 µM [4]: 76 to 100%

SMILES: Oc1nc(-c2ccccn2)nc2c(-c3ccccc3)csc12
- inhibition at 20 µM (KRas G12C mutant; compound at 20 μM): 1 to 25%

SMILES: CN(C)COc1ccc(-c2csc3c(O)nc(-c4ccccn4)nc23)cn1
- inhibition at 20 µM (KRas G12D mutant protein; compound at 20 μM): 51 to 75%
- inhibition at 20 µM (KRas Q61H mutant; compound at 20 μM): 51 to 75%
- inhibition at 20 µM [2, 6]: 51 to 75%
- inhibition at 20 µM (KRas G12C mutant; compound at 20 μM): 51 to 75%
- inhibition at 20 µM ([1]; compound at 20 μM): 51 to 75%
- inhibition at 20 µM (KRas wild type; compound at 20 μM): 51 to 75%

SMILES: O=C(c1csc2c(O)nc(-c3ccccn3)nc12)N1CCNC(Cc2cccc(F)c2)C1 (stereo not shown)
- inhibition at 30 µM [3]: 1 to 25%
- inhibition at 30 µM [4]: 26 to 50%

SMILES: CC(C)(C(=O)Nc1cc(-c2ccccn2)nc2sccc12)c1ccc(C#N)cc1
- inhibition at 30 µM [3]: 1 to 25%
- inhibition at 30 µM [4]: 76 to 100%

SMILES: O=C(CCC1N=NN=N1)Nc1nc(-c2ccccn2)nc2sccc12
- inhibition at 20 µM (KRas G12D mutant protein; compound at 20 μM): 51 to 75%
- inhibition at 20 µM (KRas Q61H mutant; compound at 20 μM): 51 to 75%
- inhibition at 20 µM [2, 6]: 51 to 75%
- inhibition at 20 µM (KRas G12C mutant; compound at 20 μM): 25 to 50%
- inhibition at 20 µM ([1]; compound at 20 μM): 51 to 75%
- inhibition at 20 µM (KRas wild type; compound at 20 μM): 51 to 75%
